Laboratory results taken from publication PMC5917010, “Structural basis for GPR40 allosteric agonism and incretin stimulation” (Nature Communications, 2018).
pEC50, pIC50, pKi: −log10 of the molar value.

Columns and labels:
GPR40 Y44F = GPR40 Y44F (Homo sapiens, UniProt O14842, Y44F); experiment: cAMP accumulation assay, Y44F mutant
Procedure: (§3) HEK293 cells transiently transfected with Promega’s cAMP response element (CRE/luc2P) and a GPR40 construct were plated (40K cells/well) into 96-well microtiter plates using Dulbecco’s Modified Eagle’s Medium (DMEM) supplemented with 10% FBS, 20 mM HEPES, pH 7.4, 100 U/mL Penicillin, 100 µg/mL Streptomycin, and 800 µg/mL Geneticin. Test compounds were serially diluted three-fold in 100% DMSO and immediately diluted in media. […] EC50 values were calculated using a four-parameter logistic curve fitting equation.

hRXRalpha = hRXRalpha (Homo sapiens, UniProt P19793); experiment: hRXRalpha binding
[1] = Human hepatocyte clearance; type: in vitro ADME; details: hepatocytes
Rat hepatocyte clearance = type: in vitro ADME; details: hepatocytes
GPR40 KO mice = experiment: OGTT in GPR40 KO mice; type: in vivo, mouse; details: high dose of compound 1
Procedure: (§1) Eight to thirteen week old male C57BL/6 or KO mice were used. The day before the study, at 1600 hours, animals were transferred into clean cages and food was removed. The following morning (~0800 hours), mice were randomized by block randomization to treatment groups (N = 5–7 per group) so each group had similar mean and standard deviation of body weight and blood glucose. […] Animals were dosed with vehicle (0.5% MC/0.25% Tween-80) or the test article by oral gavage. Group allocations were not blinded from the experimenters who collected the data. After 60 min compound treatment animals were then given an oral gavage of glucose (2 g/kg). At 0, 15, 30, 60, and 120 min post oral glucose, two glucose readings via glucometers were obtained. The average of two glucose readings was reported at each time point. Data were expressed as mean±standard error (s.e.m.). Blood glucose values were analyzed using ANOVA with repeated measures. Cook’s distance was also calculated from linear regression. All animals were included in the analysis with their individual averaged Cook’s distance < 1. Dunnett’s comparison was performed at each time point by R program. Significance is denoted at p < 0.05.

wild type ICR mice = experiment: Intraperitoneal glucose tolerance test (IPGTT) in wild type ICR mice; type: in vivo, mouse; details: various oral doses
Procedure: (§2) Nine to ten week old male ICR mice (Envigo) and GPR40 KO mice (Taconic) were used. The day before an IPGTT (~1600), animals were fasted in clean cages. The following morning (~0800), animals were randomized on fasting glucose and body weight (N = 6 per group). Mice were orally administered a test article or vehicle 60 min prior to an intraperitoneal (IP) injection of glucose (2g/kg). Blood glucose levels were determined by a glucometer from tail bleeds taken at 0, 15, 30, 60, and 120 min after the glucose challenge. An average of two readings were reported at each time point. Also, blood samples were collected into serum tubes at 0, 3, 6, and 15 min post glucose injection for insulin measurement. Serum tubes were centrifuged at 3000g for 5 min and serum transferred into 96-well plates for insulin analysis by a Mesoscale rat/mouse insulin assay.

hRORbeta = hRORbeta (Homo sapiens, UniProt Q92753); experiment: hRORbeta binding
WT GPR40 = WT GPR40 (Homo sapiens, UniProt O14842); experiment: cAMP accumulation assay (CRE/luc2P), wild type GPR40
Procedure: as §3

hRORgamma = hRORgamma (Homo sapiens, UniProt P51449); experiment: hRORgamma binding
[2] = Drug exposure in plasma after oral dose in wild type C57BL/6 mice; type: in vivo, mouse; details: 0.03-10 mpk, Supplementary Fig. 9
hERalpha = hERalpha (Homo sapiens, UniProt P03372); experiment: hERalpha binding
[3] = Mouse hepatocyte clearance; type: in vitro ADME; details: hepatocytes
hGLUCR = hGLUCR (Homo sapiens, UniProt P47871); experiment: hGLUCR binding
human GPR40 = target: T1, human GPR40 (Homo sapiens, UniProt O14842); experiment: Human GPR40 IP1; type: cell-based
T1 construct: HEK293 cells stably overexpressing full length human GPR40; expressed in transfected cells

hNav1.7 = hNav1.7 (Homo sapiens, UniProt Q15858); experiment: hNav1.7 binding; details: read-out: hNav1.7 binding Rel IC50
[4] = system: GPR40 knock-out (KO) mice; experiment: IPGTT in GPR40 knock-out mice; type: in vivo, mouse; details: high dose of compound 1
Procedure: as §2

human GPR40 (A1 site) = target: T2, human GPR40 (A1 site) (Homo sapiens, UniProt O14842); experiment: A1 site radioligand binding with [3H]-TAK-875
T2 construct: full length recombinant human GPR40 (GPR40) cDNA; expressed in transfected cells; host or cells: HEK 293, stably transfected; crude cell surface membranes
Procedure: Crude cell surface membranes were prepared from human embryonic kidney 293 (HEK 293) cells stably transfected (for the wild type) or transiently transfected (for the mutants and corresponding wild type) with full length recombinant human GPR40 (GPR40) cDNA, using differential centrifugation methods.
A1 Site Binding. 10 µL of compound diluted in 100% DMSO and 90 µL of Assay Buffer (50 mM Tris-HCl, pH 7.5, 5 mM CaCl2, 5 mM MgCl2, 0.1% w/v fatty acid-free BSA) were added to a deep 96-well polypropylene assay plate (Beckman Coulter).
Assays were terminated by filtration through GF/C glass fiber filtermats (Perkin Elmer) presoaked in 50 mM Tris–HCl, pH 7.5, using a Mach III cell harvester (TomTec). Filtermats were washed two times with 5 mL of ice-cold 50 mM Tris–HCl, pH 7.5 buffer, dried 1 h in a convection oven at 60 °C and embedded with Meltilex A solid scintillant (Perkin Elmer). Radioactivity was determined as counts per min (cpm) using a Trilux Microbeta plate scintillation counter (Perkin Elmer).

GPR120 KO mice = experiment: OGTT in GPR120 KO mice; type: in vivo, mouse; details: 5 mg/kg
Procedure: as §1

hCDK2 = hCDK2 (Homo sapiens, UniProt P24941); experiment: hCDK2 binding
hRORalpha = hRORalpha (Homo sapiens, UniProt P35398); experiment: hRORalpha binding
Chain of hRORalpha (P35398 whole entry): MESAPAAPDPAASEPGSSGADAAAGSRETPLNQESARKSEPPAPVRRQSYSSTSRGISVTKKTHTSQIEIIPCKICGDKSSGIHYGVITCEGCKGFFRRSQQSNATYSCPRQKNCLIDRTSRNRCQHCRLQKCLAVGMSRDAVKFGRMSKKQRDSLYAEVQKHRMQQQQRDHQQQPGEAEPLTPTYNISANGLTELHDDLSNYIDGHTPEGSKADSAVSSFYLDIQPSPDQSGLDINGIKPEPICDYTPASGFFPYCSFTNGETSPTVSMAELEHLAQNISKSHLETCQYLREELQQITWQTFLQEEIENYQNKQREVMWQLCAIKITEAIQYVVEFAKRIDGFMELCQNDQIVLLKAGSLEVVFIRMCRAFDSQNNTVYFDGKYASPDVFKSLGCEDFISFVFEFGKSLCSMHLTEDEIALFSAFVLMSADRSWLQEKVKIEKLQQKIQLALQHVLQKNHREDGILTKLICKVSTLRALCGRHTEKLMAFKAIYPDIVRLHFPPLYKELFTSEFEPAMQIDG

T2 sequence (O14842 whole entry): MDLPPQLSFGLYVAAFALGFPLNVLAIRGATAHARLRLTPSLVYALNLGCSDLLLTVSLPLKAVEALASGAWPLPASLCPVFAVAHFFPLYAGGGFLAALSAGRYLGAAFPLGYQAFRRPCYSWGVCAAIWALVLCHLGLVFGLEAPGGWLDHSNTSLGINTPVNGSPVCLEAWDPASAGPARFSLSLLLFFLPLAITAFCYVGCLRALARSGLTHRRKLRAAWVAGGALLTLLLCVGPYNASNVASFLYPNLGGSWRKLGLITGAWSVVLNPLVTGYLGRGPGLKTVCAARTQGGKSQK
T1 sequence (O14842 whole entry): as above
Chain of WT GPR40 (O14842 whole entry): as above
Chain of hRXRalpha (P19793 whole entry): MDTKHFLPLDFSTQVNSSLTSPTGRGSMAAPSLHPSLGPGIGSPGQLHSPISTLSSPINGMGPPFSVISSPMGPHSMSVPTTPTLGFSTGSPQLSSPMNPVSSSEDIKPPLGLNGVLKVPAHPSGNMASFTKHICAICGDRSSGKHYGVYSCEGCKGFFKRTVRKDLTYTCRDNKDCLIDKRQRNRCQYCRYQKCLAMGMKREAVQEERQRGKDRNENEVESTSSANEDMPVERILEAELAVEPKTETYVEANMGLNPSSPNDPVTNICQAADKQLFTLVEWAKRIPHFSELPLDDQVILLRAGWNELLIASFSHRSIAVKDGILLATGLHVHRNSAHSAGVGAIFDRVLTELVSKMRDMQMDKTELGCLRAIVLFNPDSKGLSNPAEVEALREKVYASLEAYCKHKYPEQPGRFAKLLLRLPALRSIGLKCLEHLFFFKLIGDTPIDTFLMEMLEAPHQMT
Chain of GPR40 Y44F (O14842 whole entry Y44F): as the sequence (O14842 whole entry) above, with Y44F counted along it
Chain of hRORbeta (Q92753 whole entry): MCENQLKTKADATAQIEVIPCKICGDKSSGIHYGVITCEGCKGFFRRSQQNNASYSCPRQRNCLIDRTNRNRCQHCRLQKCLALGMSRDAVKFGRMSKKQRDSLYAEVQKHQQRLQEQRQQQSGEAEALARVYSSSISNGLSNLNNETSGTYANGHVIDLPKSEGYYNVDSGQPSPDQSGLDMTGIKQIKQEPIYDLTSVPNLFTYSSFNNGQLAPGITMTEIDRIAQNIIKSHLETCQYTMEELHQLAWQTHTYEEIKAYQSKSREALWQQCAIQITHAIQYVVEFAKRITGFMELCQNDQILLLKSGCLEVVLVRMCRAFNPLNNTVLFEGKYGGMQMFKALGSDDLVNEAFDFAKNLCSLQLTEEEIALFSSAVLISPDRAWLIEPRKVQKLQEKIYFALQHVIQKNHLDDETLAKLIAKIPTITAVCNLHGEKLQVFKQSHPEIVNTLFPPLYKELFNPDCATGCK
Chain of hRORgamma (P51449 whole entry): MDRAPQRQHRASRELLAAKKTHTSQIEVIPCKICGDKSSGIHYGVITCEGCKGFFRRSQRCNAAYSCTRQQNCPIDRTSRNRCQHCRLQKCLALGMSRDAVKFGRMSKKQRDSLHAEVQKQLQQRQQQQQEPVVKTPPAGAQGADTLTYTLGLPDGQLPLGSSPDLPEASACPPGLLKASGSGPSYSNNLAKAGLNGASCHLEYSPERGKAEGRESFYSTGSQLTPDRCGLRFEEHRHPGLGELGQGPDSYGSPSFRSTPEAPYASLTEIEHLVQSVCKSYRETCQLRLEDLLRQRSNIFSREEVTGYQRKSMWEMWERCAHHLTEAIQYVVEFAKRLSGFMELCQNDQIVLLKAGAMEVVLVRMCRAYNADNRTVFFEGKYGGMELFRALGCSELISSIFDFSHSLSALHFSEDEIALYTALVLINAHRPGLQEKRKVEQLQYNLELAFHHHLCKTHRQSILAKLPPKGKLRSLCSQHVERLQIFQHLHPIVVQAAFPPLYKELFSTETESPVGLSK
Chain of hERalpha (P03372 whole entry): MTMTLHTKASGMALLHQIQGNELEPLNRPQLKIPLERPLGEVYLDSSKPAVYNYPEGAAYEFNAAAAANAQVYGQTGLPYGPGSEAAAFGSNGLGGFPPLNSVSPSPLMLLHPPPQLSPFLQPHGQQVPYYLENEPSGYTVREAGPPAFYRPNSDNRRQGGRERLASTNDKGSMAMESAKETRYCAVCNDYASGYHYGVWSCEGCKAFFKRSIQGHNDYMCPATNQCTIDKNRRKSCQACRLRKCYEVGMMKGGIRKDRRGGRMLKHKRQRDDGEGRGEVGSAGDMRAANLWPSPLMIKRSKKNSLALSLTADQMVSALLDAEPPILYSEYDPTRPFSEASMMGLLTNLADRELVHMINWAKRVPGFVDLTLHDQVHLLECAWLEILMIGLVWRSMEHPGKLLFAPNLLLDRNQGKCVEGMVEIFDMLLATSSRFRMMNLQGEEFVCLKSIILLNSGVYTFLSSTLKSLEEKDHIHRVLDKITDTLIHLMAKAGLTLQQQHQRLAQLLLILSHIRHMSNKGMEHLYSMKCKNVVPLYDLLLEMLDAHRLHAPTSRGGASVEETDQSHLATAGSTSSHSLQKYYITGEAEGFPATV
Chain of hNav1.7 (Q15858 whole entry): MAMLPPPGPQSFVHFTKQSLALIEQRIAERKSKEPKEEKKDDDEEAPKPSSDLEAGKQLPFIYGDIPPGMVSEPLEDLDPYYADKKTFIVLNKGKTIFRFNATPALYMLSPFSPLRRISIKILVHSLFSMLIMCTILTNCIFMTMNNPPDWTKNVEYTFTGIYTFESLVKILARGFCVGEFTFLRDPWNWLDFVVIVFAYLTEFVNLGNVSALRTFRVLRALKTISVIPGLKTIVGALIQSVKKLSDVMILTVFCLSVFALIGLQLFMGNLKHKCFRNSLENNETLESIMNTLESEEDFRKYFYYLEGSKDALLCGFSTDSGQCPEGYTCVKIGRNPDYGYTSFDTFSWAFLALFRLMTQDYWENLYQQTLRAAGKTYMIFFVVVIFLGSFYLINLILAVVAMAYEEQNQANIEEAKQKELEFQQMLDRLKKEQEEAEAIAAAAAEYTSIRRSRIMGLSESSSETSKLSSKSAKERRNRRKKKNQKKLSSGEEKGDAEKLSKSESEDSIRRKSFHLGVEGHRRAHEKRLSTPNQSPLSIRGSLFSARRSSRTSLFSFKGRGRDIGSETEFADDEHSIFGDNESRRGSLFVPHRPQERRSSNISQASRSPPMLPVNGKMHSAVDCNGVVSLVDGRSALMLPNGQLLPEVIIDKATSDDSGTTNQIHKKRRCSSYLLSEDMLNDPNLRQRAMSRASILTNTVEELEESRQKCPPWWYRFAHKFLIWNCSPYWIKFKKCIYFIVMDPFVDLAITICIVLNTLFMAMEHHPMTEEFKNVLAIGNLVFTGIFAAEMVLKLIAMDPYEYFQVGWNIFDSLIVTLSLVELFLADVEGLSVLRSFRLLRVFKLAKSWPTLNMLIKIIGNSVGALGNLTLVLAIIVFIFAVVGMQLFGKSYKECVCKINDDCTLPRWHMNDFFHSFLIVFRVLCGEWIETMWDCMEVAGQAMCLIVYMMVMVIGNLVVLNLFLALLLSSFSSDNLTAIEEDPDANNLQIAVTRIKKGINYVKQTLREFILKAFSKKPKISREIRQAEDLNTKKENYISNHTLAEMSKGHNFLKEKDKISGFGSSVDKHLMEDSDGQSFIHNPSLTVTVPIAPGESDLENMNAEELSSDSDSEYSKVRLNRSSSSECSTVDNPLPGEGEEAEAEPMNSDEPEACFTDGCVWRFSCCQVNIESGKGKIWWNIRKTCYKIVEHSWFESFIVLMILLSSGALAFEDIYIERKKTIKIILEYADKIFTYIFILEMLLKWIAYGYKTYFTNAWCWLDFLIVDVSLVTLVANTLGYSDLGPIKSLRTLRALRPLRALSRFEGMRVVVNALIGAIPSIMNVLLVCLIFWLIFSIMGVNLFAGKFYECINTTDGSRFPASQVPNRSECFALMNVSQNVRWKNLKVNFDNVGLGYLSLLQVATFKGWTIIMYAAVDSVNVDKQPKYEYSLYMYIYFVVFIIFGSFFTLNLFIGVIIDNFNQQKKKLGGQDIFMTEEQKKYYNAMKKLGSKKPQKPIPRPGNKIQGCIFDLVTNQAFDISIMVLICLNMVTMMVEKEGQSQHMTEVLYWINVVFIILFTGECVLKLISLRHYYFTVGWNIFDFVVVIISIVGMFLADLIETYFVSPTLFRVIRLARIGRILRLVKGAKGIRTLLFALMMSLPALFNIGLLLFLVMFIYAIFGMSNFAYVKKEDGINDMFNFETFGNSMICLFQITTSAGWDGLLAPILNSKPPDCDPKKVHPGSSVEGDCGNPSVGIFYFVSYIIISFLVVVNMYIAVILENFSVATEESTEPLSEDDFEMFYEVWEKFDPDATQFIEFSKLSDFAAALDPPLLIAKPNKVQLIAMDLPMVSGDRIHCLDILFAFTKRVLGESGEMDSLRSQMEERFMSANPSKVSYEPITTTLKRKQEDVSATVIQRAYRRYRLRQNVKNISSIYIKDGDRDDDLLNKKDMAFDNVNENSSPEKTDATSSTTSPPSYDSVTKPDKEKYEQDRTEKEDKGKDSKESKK

`COc1ccc(C(=O)N(CC(C)(C)C)c2cccc(C)n2)c(N2CCC(c3cc4ccc([C@@H](CC(=O)O)C5CC5)cc4o3)CC2)c1` [compound 1] gave a pEC50 (GPR40 Y44F) of under 4.52, a pKi (hRXRalpha) of under 5.00 and a recovery ([1]; no ABT, read-out: Human Hepatocyte Clearance no ABT % Recovery) of 103%. For the same molecule, the hepatocyte CLint ([1]; no ABT, read-out: Human Hepatocyte Clearance no ABT Intrinsic Clearance) was 8.8 µL/min/1e6 cells, the recovery ([1]; with ABT (concentration not stated), read-out: Human Hepatocyte Clearance ABT % Recovery) was 92.8% and the hepatocyte CLint ([1]; with ABT, read-out: Human Hepatocyte Clearance ABT Intrinsic Clearance) was under 1.8 µL/min/1e6 cells. For the same molecule, the recovery (Rat hepatocyte clearance; no ABT, read-out: Rat Hepatocyte Clearance no ABT % Recovery) was 103%, the hepatocyte CLint (Rat hepatocyte clearance; no ABT, read-out: Rat Hepatocyte Clearance no ABT Intrinsic Clearance) was 12.2 µL/min/1e6 cells and the recovery (Rat hepatocyte clearance; with ABT (concentration not stated), read-out: Rat Hepatocyte Clearance ABT % Recovery) was 92.8%. For the same molecule, the hepatocyte CLint (Rat hepatocyte clearance; with ABT, read-out: Rat Hepatocyte Clearance ABT Intrinsic Clearance) was 3 µL/min/1e6 cells, the “blood glucose in OGTT, GPR40 KO” value (GPR40 KO mice) was “No change in blood glucose” and the “glucose excursion in IPGTT” value (wild type ICR mice) was “decreases in glucose excursion”. For the same molecule, the “insulin secretion in IPGTT” value (wild type ICR mice) was “Dose-dependent increases in insulin secretion”, the pKi (hRORbeta) was under 4.89 and the pEC50 (WT GPR40; cAMP accumulation EC50, GPR40-Gαs signaling, stably transfected cells, Fig. 1c, n = 6) was about 6.90. The pEC50 (WT GPR40; cAMP accumulation EC50, WT, Fig. 6c-e, n = 3) was 6.68, the pKi (hRORgamma) was under 4.70 and the “pharmacokinetics in mouse (drug exposures in plasma)” value [2] was “dose proportional”. It also gave a pKi (hERalpha) of under 4.96, a recovery ([3]; no ABT, read-out: Mouse Hepatocyte Clearance no ABT % Recovery) of 103% and a hepatocyte CLint ([3]; no ABT, read-out: Mouse Hepatocyte Clearance no ABT Intrinsic Clearance) of 9.2 µL/min/1e6 cells. For the same molecule, the recovery ([3]; with ABT (concentration not stated), read-out: Mouse Hepatocyte Clearance ABT % Recovery) was 92.8%, the hepatocyte CLint ([3]; with ABT, read-out: Mouse Hepatocyte Clearance ABT Intrinsic Clearance) was 12.4 µL/min/1e6 cells and the pKi (hGLUCR) was under 5.00. For the same molecule, the pEC50 (human GPR40) was over 10.30, the Emax (human GPR40) was 484% and the pIC50 (hNav1.7) was under 4.52. The “glucose lowering in IPGTT, GPR40 KO” value [4] was “not observed”, the “insulin secretion in IPGTT, GPR40 KO” value [4] was “not observed” and the pKi (human GPR40 (A1 site); Supplementary Table 1) was under 5.25. The “effect on [3H]-TAK-875 binding” value (human GPR40 (A1 site); addition of unlabeled compound, membranes from stably transfected cells) was “enhanced binding activity”, the “affinity modulation factor (α)” value (human GPR40 (A1 site); allosteric modulator titration equation, [3H]-TAK-875 binding, Fig. 1a) was 2.4 and the “glucose excursion in OGTT, GPR120 KO” value (GPR120 KO mice) was “significant decrease in glucose excursion”. It also gave a pIC50 (hCDK2) of under 4.70 and a pKi (hRORalpha) of under 4.70.
